# Assay results reported in paper PMC3762585 (Chemical & pharmaceutical bulletin, 2012).
# Where two headings read alike, the source gives them in different places.
# Columns and labels:
# [1] = tested on: JMAR, MDA-1986, B16F10, SKMEL-28 and MRC-5 cells; test: MTS viability; assay type: cell-based; conditions: for anti-proliferative activity (cytotoxic effect): tested with a concentration of 20 μM, all five cell lines; for IC50: read-out: IC50 values, range over the cells tested
# in vitro = conditions: human
# B16F10 [2] = test: MTS viability; conditions: Mus musculus, B16-F10, read-out: Cytotoxicity IC50 B16F10
# SKMEL-28 [3] = test: MTS viability; conditions: Homo sapiens, SK-MEL-28, read-out: Cytotoxicity IC50 SKMEL-28
# MDA-1986 [4] = test: MTS viability; conditions: Homo sapiens, MDA1986, read-out: Cytotoxicity IC50 MDA-1986
# JMAR [5] = test: MTS viability; conditions: Homo sapiens, read-out: Cytotoxicity IC50 JMAR
# MDA-1986 [6] = tested on: MDA-1986
# B16F10 [7] = tested on: B16F10
# JMAR [8] = tested on: JMAR
# SKMEL-28 [9] = tested on: SKMEL-28
Compound,anti-proliferative activity (cytotoxic effect) [1],IC50 [1],IC50 (in vitro),IC50 (B16F10 [2]),IC50 (SKMEL-28 [3]),IC50 (MDA-1986 [4]),IC50 (JMAR [5]),IC50 (MDA-1986 [6]),IC50 (B16F10 [7]),IC50 (MRC-5),IC50 (JMAR [8]),IC50 (SKMEL-28 [9])
19-hydroxy viscosalactone B [Withalongolide P 2],inactive,–,–,–,–,–,–,–,–,–,–,–
"CC1=C(CO)C(=O)O[C@@H]([C@@H](C)[C@H]2CC[C@H]3[C@@H]4C[C@H]5O[C@]56[C@@H](O)C=CC(=O)[C@]6(C)[C@H]4CC[C@]23C)C1 [Withaferin A 6, withaferin A]",–,150 to 12700 nM,320 ± 60 nM,270 ± 40 nM,3500 ± 150 nM,860 ± 250 nM,–,–,–,–,–,–
"CC1=C(C)C(=O)O[C@@H]([C@@H](C)[C@H]2CC[C@H]3[C@@H]4C[C@H]5O[C@]56[C@@H](O)C=CC(=O)[C@]6(CO)[C@H]4CC[C@]23C)C1 [Withalongolide B 5, withalongolide B]",–,150 to 12700 nM,380 ± 30 nM,260 ± 70 nM,3300 ± 480 nM,1700 ± 80 nM,250 ± 140 nM,–,–,–,–,–
"CC1=C(CO)C(=O)O[C@@H]([C@@H](C)[C@H]2CC[C@H]3[C@@H]4C[C@H]5O[C@]56[C@@H](O)[C@@H](O)CC(=O)[C@]6(C)[C@H]4CC[C@]23C)C1 [viscosalactone B 3, viscosalactone B]",inactive,–,> 20000 nM,> 20000 nM,> 20000 nM,> 20000 nM,> 20000 nM,–,–,–,–,–
"Withalongolide O 4,7-Diacetate [Withalongolide O 4,7-diacetate 1a]",–,–,–,–,–,–,–,540 ± 70 nM,690 ± 140 nM,530 ± 120 nM,830 ± 140 nM,180 ± 30 nM
